The text below walks through data of patent US6001851A, “HIV protease inhibitors” (Agouron Pharmaceuticals, Inc., priority 1998, dated 1999).

The subject of data set [1] is HIV-1 RF. The experiment in a line: Cell protection assay (MTT dye reduction): acute infection of CEM-SS cells with HIV-1 RF. Format: cell-based, HIV-1 strain RF (in human T cell line CEM-SS). To be noted: for EC95: read-out: ED95; for Therapeutic index: TC50/ED50, CEM-SS cells, 8640 min. On the procedure:
(§1) The CEM-SS and MT-2 human T cell lines and HIV-1 strains RF and IIIB were obtained from the AIDS Research and Reference Program, Division of AIDS, NIAID, and NIH.
(§2) The inhibitory effects of each agent on HIV-1 replication were measured by the MTT dye reduction method (Alley, M. C. et al., Cancer Res. 48: 589-601 (1988)). Compounds were dissolved in DMSO at a concentration of 40 mg/ml then diluted 1:200 in culture medium (RPMI, supplemented with 10% fetal bovine serum). From each diluted stock, 100 μl was added to a 96-well plate and serial half-log dilutions were prepared. In separate tubes, MT-2 cells and CEM-SS cells were infected with HIV-1 IIIB or HIV-1 RF at a multiplicity of infection (m.o.i.) of 0.01 and 0.03, respectively. Following a 4-hour adsorption period, […] of infected or uninfected cells were added to the wells of the drug containing plate to give a final concentration of 1×10^4 cells/well. Six days (CEM-SS cells) or 7 days (MT-2 cells) later, MTT (5 mg/ml) was added to test plates and the amount of formazan produced was quantified spectrophotometrically at 570 nm. Data were expressed as the percentage of formazan produced in drug-treated cells compared to formazan produced in wells of uninfected, drug-free cells. The EDS50 was calculated as the concentration of drug that increased the percentage of formazan production in infected, drug-treated cells to 50% of that produced by uninfected, drug-free cells. Cytotoxicity (TC50) was calculated as the concentration of drug that decreased the percentage of formazan produced in uninfected, drug-treated cells to 50% of that produced in uninfected, drug-free cells. The therapeutic index (TI) was calculated by dividing the cytotoxicity (TC50) by the antiviral efficacy (ED50).

Data set [2] is described as follows: Cytotoxicity in uninfected CEM-SS cells (MTT). Format: cell-based. As to conditions: human. On the procedure: as §1, §2
In data set [3] the test system is HIV-1 IIIB. The experiment in a line: Cell protection assay (MTT dye reduction): acute infection of MT-2 cells with HIV-1 IIIB. Format: cell-based, HIV-1 strain IIIB (in human T cell line MT-2). As to conditions: for Therapeutic: therapeutic index TC50/ED50, MT-2 cells, 10080 min. On the procedure:
as §1, §2

Data set [4] can be described thus: Cytotoxicity in uninfected MT-2 cells (MTT). To be noted: human. The format is cell-based. On the procedure: as §1, §2
Data set [5] has as its target T1, HIV-1 protease (Q7S) (Human immunodeficiency virus type 1 group M subtype B, UniProt P03366, Q507S).
T1 construct: HIV-1 protease gene was isolated from the viral strain IIIB; made in house; host or cells: E. coli BL21(DE3), plasmid pGZ/HP-19Q7S#9
The experiment in a line: Tight-binding kinetics assay, HIV-1 protease inhibition (modified chromogenic assay). The format is biochemical, HIV-1 (viral strain IIIB).
Procedure: Proteolytic activity of purified HIV-1 protease was measured using a modified chromogenic assay developed by Richards at al. (Richards, A. D. et al. J. Biol. Chem., 256, 773-7736 (1990)). […] The assay was carried out in 0.5 M NaCl, 50 mM MES pH 5.6, 5 mM DDT, and 2% DMSO at 37° C. Cleavage of the scissile bond between leucine and paranitro-phenylalanine (Phe para-NO2) was assayed by spectrophotometric monitoring of the decrease on absorbance at 305 nm.

The nature of data set [6]: Metabolite obtained from the plasma of patients. The format is in vivo. To be noted: plasma of patients administered the N-t-butylcarboxamide methanesulfonic acid salt of U.S. Pat. No. 5,484,926. An excerpt: A process for making compound 21 is provided below.
Where [7] appears, read: uninfected CEM-SS cells, 6 days, read-out: TC50.
Where [8] appears, read: uninfected MT-2 cells, 7 days, read-out: TC50.
[9] abbreviates: Human immunodeficiency virus 1, 144 h, CEM-SS cells, HIV-1 RF, m.o.i. 0.03, 6 days, read-out: ED50 (the source's name).
The mark [10] stands for this setting: Human immunodeficiency virus 1, 144 h, CEM-SS cells, HIV-1 RF, m.o.i. 0.03, 6 days.
[11] abbreviates: Human immunodeficiency virus 1, MT2, 168 h, MT-2 cells, HIV-1 IIIB, m.o.i. 0.01, 7 days, read-out: ED50 (the source's name).

Where two headings read alike, the source gives them in different places.

As to `Cc1cn([C@H]2C[C@H](N=[N+]=[N-])[C@@H](CO)O2)c(=O)[nH]c1=O` [AZT, azidothymidine], the EC50 in data set [1] (Human immunodeficiency virus 1, CEM-SS, 144 h, read-out: ED50) is 52.3 nM; in data set [3] (Human immunodeficiency virus 1, IIIB, MT2, 168 h, read-out: ED50), 431 nM. Further, the EC95 in data set [1] (Human immunodeficiency virus 1, CEM-SS, 144 h) was determined as 543 nM. The molecule also gave a Therapeutic index in data set [1] (HIV-1 RF) greater than 7161. The CC50 at 144 h in data set [2] (setting [7]) was greater than 374000 nM. Moreover, in data set [3] (HIV-1 IIIB), the Therapeutic was 254. For the same molecule, the CC50 at 168 h in data set [4] (setting [8]) turned out to be 109000 nM.

Regarding `Cc1c(O)cccc1C(=O)NC(CSc1ccccc1)C(O)CN1CC2CCCCC2CC1C(=O)NC(C)(C)CO` (stereo not drawn) [Compound 21, [3S-[2(2S*,3S*),3 alpha,4abeta,8abeta]]-N-(1,1-dimethyl-2-hydroxyethyl)decahydro-2-[2-hydroxy-3-[(3-hydroxy-2-methylbenzoyl)amino]-4-(phenylthio)butyl]-3-isoquinolinecarboxamide], the inhibition constant Ki in data set [5] (tight binding kinetics, 200 uM substrate, pH 5.6, 37° C., Morrison fit) is 5.6 ± 0.91 nM. Moreover, the results for the EC50 in data set [1] (setting [9]) and in data set [3] (setting [11]) were 34.2 nM and 85.6 nM, respectively. The EC95 in data set [1] (setting [10]) was determined as 154 nM. Also, the Therapeutic index in data set [1] (HIV-1 RF) is 2825. Further, the CC50 at 144 h in data set [2] (setting [7]) came out at 96600 nM. The Therapeutic in data set [3] (HIV-1 IIIB) is reported as 1082. The CC50 at 168 h in data set [4] (setting [8]) came out at 92600 nM. The “obtained as a metabolite” value in data set [6] is listed as “obtained as a metabolite from the plasma of patients”.

Turning to `Nc1ccn([C@H]2CC[C@@H](CO)O2)c(=O)n1` [ddC, dideoxycytidine], the EC50 is 94.7 nM in data set [1] (setting [9]) and 5920 nM in data set [3] (setting [11]). Besides, in data set [1] (setting [10]), the EC95 worked out at 142 nM. In addition, the Therapeutic index in data set [1] (HIV-1 RF) was 398. Further, in data set [2] (cem-ss cells), the CC50 at 144 h is 37700 nM. This molecule gave a Therapeutic in data set [3] (HIV-1 IIIB) of 30. The same molecule showed a CC50 at 168 h in data set [4] (mt-2 cells) of 176000 nM.

Regarding “His-Lys-Ala-Arg-Val-Leu-Phe(paraNO2)-Glu-Ala-Nle-Ser-NH2”, the Km in data set [5] (substrate, Q7S HIV-1 protease, 0.5 M NaCl, 50 mM MES pH 5.6, 2% DMSO, 37° C., read-out: Michaelis constant (Km)) worked out at 59 ± 17 µM.
